# Experimental data from patent publication US20250275953A1, “VODOBATINIB FOR REDUCING PROGRESSION OF PARKINSON'S DISEASE” (Sun Pharma Advanced Research Company Ltd., priority 2022, published 2025).
# Entries after “also recorded” stand apart in the source; their conditions may differ.
# Columns and labels:
# Abl (T315I) = Abl (T315I) (Homo sapiens, UniProt P00519, T315I); assay: Biochemical kinase assay, gatekeeper mutant Abl
# Description: Conventional biochemical kinase assays, using radioactivity and fluorescence as readouts, were used to derive half maximal-inhibitory concentrations (IC50) values.
# [1] = Safety and tolerability, healthy volunteers; type: in vivo, human; conditions: for number of treatment-related TEAEs: four subjects
# Method: The subjects were further assessed for safety. Accordingly, hematology, chemistry, urinalysis testing and vital signs examination (seated systolic [SBP] and diastolic blood pressure [DBP], pulse, respiration rate, and temperature) were performed at screening, check-in and at the exit visit prior to discharge from the study. Seated vital signs were checked after 1 h, 4 h, and 12 h of the first dose on Day 1. 12-lead ECGs were recorded on Day 1 and Day 7 in triplicate 0.75 h, 0.5 h and 0.25 h prior to the dose and after 0.5 h, 1 h, 2 h, 3 h, 4 h, 8 h, 12 h, and 24 h of the dose with subjects in supine position. Lumbar catheter was placed on day 7 and the vital signs were checked after 1 h, 4 h, and 12 h of the dose. Vital signs were examined within 15 minutes prior to the collection of samples for PK studies.
# All adverse event (AE)s were captured and documented throughout the study from the time of ICF signing to 7 days after the last dose of study medication or early termination.
# The AEs were coded according to MedDRA® and grouped by Preferred Terms (PT) and System Organ Class (SOC). All AEs were classified and graded according to CTCAE Version 4.03 or later. Incidence (n) and percentage (%) was reported for coded TEAEs by cohort for the SAF Population. Subjects with more than one of the same PTs within an SOC were counted only once.
# Categorical ECG analysis included the number and percentage of individuals with abnormal ECG findings and those with: absolute QTcF values >450 milliseconds, absolute QTcF values >480 milliseconds, absolute QTcF values >500 milliseconds, change from baseline >30 msec, and change from baseline >60 msec. No subject reported clinically significant abnormalities. […] No AEs related to ECG parameters were reported in any group during the study.
# Forty-one healthy adult male volunteers aged 18 to 45 with body mass indexes (BMI)≥18 to ≤30 Kg/m^2 and total body weight >50 kg (110 lb) were screened in order to enroll 19 subjects with an average age of 34.2 years (range 21.5-45.6 years) into this study Six participants were randomly assigned to the 48 and 192 mg cohorts, and seven participants were assigned to the 384 mg cohort. After an overnight fast, participants received once daily doses of vodobatinib as capsules for 7 days. Serial PK blood samples to measure vodobatinib plasma concentrations were collected at pre-dose and at 0.25, 0.5, 1, 1.5, 2, 2.5, 3, 4, 6, 8, 12, 16 and 24 h post-dose after the first dose on Day 1 and the last dose on day 7. Additional PK samples prior to the morning doses were taken on Days 3-6. On the morning of Day 7, prior to dosing, an indwelling intrathecal catheter was inserted in the lumbar region (L3-L5). Serial CSF samples were collected through the catheter connected via peristaltic pump to a fraction collector. At each designated CSF collection time point, 8 mL of CSF was collected at a flow rate of 0.5 mL/min over a 16-min period at pre-dose, and 0.5, 1.0, 1.5, 2, 2.5, 3, 4, 6, 8, 12 and 24 h post-dose. The first 2 mL of CSF was discarded, and the remaining 6 mL was used for the vodobatinib assay. The occurrence of treatment-emergent adverse events (TEAEs) and serious AEs (SAEs) reported through the completion of study were collected. Clinical laboratory parameters, vital signs and physical examination data and electrocardiogram (ECG) were collected and evaluated relative to baseline values.
# [2] = Total (N = 19), listed as vodobatinib
# [3] = all cohorts, listed as vodobatinib
smiles,measurement,setting,value
Cc1ccc(C(=O)NNC(=O)c2c(C)cccc2Cl)cc1C#Cc1cnc2ccccc2c1 [N′-(2-chloro-6-methylbenzoyl)-4-methyl-3-[2-(3-quinolyl)ethynyl]-benzohydrazide],IC50,Abl (T315I),8 nM
same,"IMP Related TEAEs: Abdominal Distension, N (%)",[1]; 48 mg (N = 6),0
same,"IMP Related TEAEs: Gastrointestinal Disorders, N (%)",[1]; 48 mg (N = 6),0
same,"IMP Related TEAEs: General Disorders and Administration Site Conditions, N (%)",[1]; 48 mg (N = 6),0
same,"IMP Related TEAEs: Headache, N (%)",[1]; 48 mg (N = 6),1 (16.7)
same,"IMP Related TEAEs: Musculoskeletal and Connective Tissue Disorders, N (%)",[1]; 48 mg (N = 6),0
same,"IMP Related TEAEs: Myalgia, N (%)",[1]; 48 mg (N = 6),0
same,"IMP Related TEAEs: Nausea, N (%)",[1]; 48 mg (N = 6),0
same,"IMP Related TEAEs: Nervous System Disorders, N (%)",[1]; 48 mg (N = 6),1 (16.7)
same,"IMP Related TEAEs: Pain, N (%)",[1]; 48 mg (N = 6),0
same,"IMP Related TEAEs: Subjects with at least one AE, N (%)",[1]; 48 mg (N = 6),1 (16.7)
same,"IMP Related TEAEs: Subjects with more than one AE, N (%)",[1]; 48 mg (N = 6),0
same,Number of subjects with at least one TEAE,[1]; 48 mg (N = 6),4
same,"Study Drug Related TEAEs, subjects",[1]; 48 mg (N = 6),1
same,"Study Drug Withdrawn, subjects",[1]; 48 mg (N = 6),0
same,"TEAEs Certainly, subjects",[1]; 48 mg (N = 6),0
same,"TEAEs Mild, subjects",[1]; 48 mg (N = 6),4
same,"TEAEs Moderate, subjects",[1]; 48 mg (N = 6),1
same,"TEAEs None (row before Study Drug Withdrawn), subjects",[1]; 48 mg (N = 6),4
same,"TEAEs Possibly, subjects",[1]; 48 mg (N = 6),1
same,"TEAEs Probably, subjects",[1]; 48 mg (N = 6),0
same,"TEAEs Unlikely, subjects",[1]; 48 mg (N = 6),0
same,"TEAEs Unrelated, subjects",[1]; 48 mg (N = 6),4
same,number of TEAEs,[1]; 48 mg (N = 6),9
same,"IMP Related TEAEs: Abdominal Distension, N (%)",[1]; 192 mg (N = 6),0
same,"IMP Related TEAEs: Gastrointestinal Disorders, N (%)",[1]; 192 mg (N = 6),1 (16.7)
same,"IMP Related TEAEs: General Disorders and Administration Site Conditions, N (%)",[1]; 192 mg (N = 6),0
same,"IMP Related TEAEs: Headache, N (%)",[1]; 192 mg (N = 6),1 (16.7)
same,"IMP Related TEAEs: Musculoskeletal and Connective Tissue Disorders, N (%)",[1]; 192 mg (N = 6),1 (16.7)
same,"IMP Related TEAEs: Myalgia, N (%)",[1]; 192 mg (N = 6),1 (16.7)
same,"IMP Related TEAEs: Nausea, N (%)",[1]; 192 mg (N = 6),1 (16.7)
same,"IMP Related TEAEs: Nervous System Disorders, N (%)",[1]; 192 mg (N = 6),1 (16.7)
same,"IMP Related TEAEs: Pain, N (%)",[1]; 192 mg (N = 6),0
same,"IMP Related TEAEs: Subjects with at least one AE, N (%)",[1]; 192 mg (N = 6),1 (16.7)
same,"IMP Related TEAEs: Subjects with more than one AE, N (%)",[1]; 192 mg (N = 6),1 (16.7)
same,Number of subjects with at least one TEAE,[1]; 192 mg (N = 6),4
same,"Study Drug Related TEAEs, subjects",[1]; 192 mg (N = 6),1
same,"Study Drug Withdrawn, subjects",[1]; 192 mg (N = 6),0
same,"TEAEs Certainly, subjects",[1]; 192 mg (N = 6),0
same,"TEAEs Mild, subjects",[1]; 192 mg (N = 6),4
same,"TEAEs Moderate, subjects",[1]; 192 mg (N = 6),2
same,"TEAEs None (row before Study Drug Withdrawn), subjects",[1]; 192 mg (N = 6),4
same,"TEAEs Possibly, subjects",[1]; 192 mg (N = 6),1
same,"TEAEs Probably, subjects",[1]; 192 mg (N = 6),0
same,"TEAEs Unlikely, subjects",[1]; 192 mg (N = 6),1
same,"TEAEs Unrelated, subjects",[1]; 192 mg (N = 6),3
same,number of TEAEs,[1]; 192 mg (N = 6),10
same,"IMP Related TEAEs: Abdominal Distension, N (%)",[1]; 384 mg (N = 7),1 (14.3)
same,"IMP Related TEAEs: Gastrointestinal Disorders, N (%)",[1]; 384 mg (N = 7),1 (14.3)
same,"IMP Related TEAEs: General Disorders and Administration Site Conditions, N (%)",[1]; 384 mg (N = 7),1 (14.3)
same,"IMP Related TEAEs: Headache, N (%)",[1]; 384 mg (N = 7),1 (14.3)
same,"IMP Related TEAEs: Musculoskeletal and Connective Tissue Disorders, N (%)",[1]; 384 mg (N = 7),0
same,"IMP Related TEAEs: Myalgia, N (%)",[1]; 384 mg (N = 7),0
same,"IMP Related TEAEs: Nausea, N (%)",[1]; 384 mg (N = 7),1 (14.3)
same,"IMP Related TEAEs: Nervous System Disorders, N (%)",[1]; 384 mg (N = 7),1 (14.3)
same,"IMP Related TEAEs: Pain, N (%)",[1]; 384 mg (N = 7),1 (14.3)
same,"IMP Related TEAEs: Subjects with at least one AE, N (%)",[1]; 384 mg (N = 7),2 (28.6)
same,"IMP Related TEAEs: Subjects with more than one AE, N (%)",[1]; 384 mg (N = 7),1 (14.3)
same,Number of subjects with at least one TEAE,[1]; 384 mg (N = 7),3
same,"Study Drug Related TEAEs, subjects",[1]; 384 mg (N = 7),2
same,"Study Drug Withdrawn, subjects",[1]; 384 mg (N = 7),0
same,"TEAEs Certainly, subjects",[1]; 384 mg (N = 7),0
same,"TEAEs Mild, subjects",[1]; 384 mg (N = 7),3
same,"TEAEs Moderate, subjects",[1]; 384 mg (N = 7),1
same,"TEAEs None (row before Study Drug Withdrawn), subjects",[1]; 384 mg (N = 7),3
same,"TEAEs Possibly, subjects",[1]; 384 mg (N = 7),2
same,"TEAEs Probably, subjects",[1]; 384 mg (N = 7),1
same,"TEAEs Unlikely, subjects",[1]; 384 mg (N = 7),3
same,"TEAEs Unrelated, subjects",[1]; 384 mg (N = 7),0
same,number of TEAEs,[1]; 384 mg (N = 7),9
same,subjects with absolute QTcF >450 ms,"[1]; 48, 192, 384 mg",None of the subjects
same,"Study Drug Withdrawn, subjects",[1]; Total (N = 19),0
same,"TEAEs Certainly, subjects",[1]; Total (N = 19),0
same,"TEAEs Mild, subjects",[1]; Total (N = 19),11
same,"TEAEs Moderate, subjects",[1]; Total (N = 19),4
same,"TEAEs None (row before Study Drug Withdrawn), subjects",[1]; Total (N = 19),11
same,"TEAEs Possibly, subjects",[1]; Total (N = 19),4
same,"TEAEs Probably, subjects",[1]; Total (N = 19),1
same,"TEAEs Unlikely, subjects",[1]; Total (N = 19),4
same,"TEAEs Unrelated, subjects",[1]; Total (N = 19),7
same,number of TEAEs,[1]; Total (N = 19),28
same,Number of subjects with at least one TEAE,[1]; [2],Eleven
same,"Study Drug Related TEAEs, subjects",[1]; [2],Four
same,SAEs,[1]; all cohorts,No subject experienced an SAE; also recorded: no SAEs
same,TEAE abdominal distention,[1]; all cohorts,10.5%
same,TEAE back pain,[1]; all cohorts,10.5%
same,TEAE headache and nausea,[1]; all cohorts,15.8%
same,TEAE post lumbar puncture syndrome,[1]; all cohorts,42.1%
same,"findings in clinical laboratory results, vital signs, ECGs, physical examinations",[1]; all cohorts,no clinically relevant or significant findings
same,subjects with TEAEs unlikely related to study treatment,[1]; all cohorts,21%
same,subjects with TEAEs unrelated to study treatment,[1]; all cohorts,37%
same,subjects with mild TEAEs,[1]; all cohorts,58%
same,subjects with moderate TEAEs,[1]; all cohorts,21%
same,subjects reporting TEAEs,[1]; all cohorts (N = 19),58%
same,number of treatment-related TEAEs,[1]; all cohorts,7
same,number of treatment-related TEAEs,[1]; [3],seven
same,SAEs,[1]; [3],no SAEs
